Reference: PubChem BioAssay AID256 (DTP/NCI, 2004)
Several values for one entry are separate records, joined by “and”; a condition that tells them apart may be missing. Identical values can stand only once. Inconclusive results and toxic doses are left out. Rule for the calls: active = survival T/C of 150% or more; inactive = T/C below 125% in these data.

System: CD2F1 mice, L1210 leukemia ip, survival T/C
Experiment: NCI In Vivo Anticancer Drug Screen. Data for tumor model L1210 Leukemia (intraperitoneal) in CD2F1 (CDF1) mice
Conditions: higher = longer survival
In short: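 Compound-dosed mice with transplantable tumor versus matched vehicle controls; endpoint ratio T/C reported.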

[1] = endpoint: mean survival time, dose: 100.0 mg/kg/injection, schedule: Q01DX001 (ip), vehicle: saline with Tween-80
[2] = endpoint: mean survival time, dose: 200.0 mg/kg/injection, schedule: Q01DX001 (ip), vehicle: saline with Tween-80
[3] = endpoint: mean survival time, dose: 400.0 mg/kg/injection, schedule: Q01DX001 (ip), vehicle: saline with Tween-80
[4] = endpoint: mean survival time, dose: 100.0 mg/kg/injection, schedule: Q01DX009 (ip), vehicle: saline with Tween-80
[5] = endpoint: mean survival time, dose: 100.0 mg/kg/injection, schedule: Q04DX003 (ip), vehicle: saline with Tween-80
[6] = endpoint: mean survival time, dose: 200.0 mg/kg/injection, schedule: Q01DX009 (ip), vehicle: saline with Tween-80
[7] = endpoint: mean survival time, dose: 200.0 mg/kg/injection, schedule: Q04DX003 (ip), vehicle: saline with Tween-80
[8] = endpoint: mean survival time, dose: 400.0 mg/kg/injection, schedule: Q01DX009 (ip), vehicle: saline with Tween-80
[9] = endpoint: mean survival time, dose: 400.0 mg/kg/injection, schedule: Q04DX003 (ip), vehicle: saline with Tween-80
[10] = endpoint: mean survival time, dose: 25.0 mg/kg/injection, schedule: Q01DX009 (ip), vehicle: saline with Tween-80
[11] = endpoint: mean survival time, dose: 50.0 mg/kg/injection, schedule: Q01DX009 (ip), vehicle: saline with Tween-80

Measured: T/C

COc1cc2c(cc1O)C(O)CNC2 (centres undefined)
inactive: endpoint: mean survival time, dose: 100.0 mg/kg/injection, schedule: Q01DX001 (ip), vehicle: saline 104 % of control | endpoint: mean survival time, dose: 200.0 mg/kg/injection, schedule: Q01DX001 (ip), vehicle: saline 93 % of control | endpoint: mean survival time, dose: 400.0 mg/kg/injection, schedule: Q01DX001 (ip), vehicle: saline 98 % of control

COCCOCCOc1cc(-c2c(OCCOCCOC)ccc3ccccc23)c2ccccc2c1
inactive: [1] 100 % of control | [2] 100 % of control | [3] 100 % of control

C1CCC(C2CCCC[N-]2)[N-]C1.O=C(O)C1CCC[N-]1.[Cl][Pt] (centres undefined)
inactive: endpoint: median survival time, dose: 10.0 mg/kg/injection, schedule: Q04DX003 (ip), vehicle: saline 103 % of control | endpoint: median survival time, dose: 20.0 mg/kg/injection, schedule: Q04DX003 (ip), vehicle: saline 101 % of control | endpoint: median survival time, dose: 40.0 mg/kg/injection, schedule: Q04DX003 (ip), vehicle: saline 98 % of control | endpoint: median survival time, dose: 80.0 mg/kg/injection, schedule: Q04DX003 (ip), vehicle: saline 98 % of control and 104 % of control | endpoint: median survival time, dose: 160.0 mg/kg/injection, schedule: Q04DX003 (ip), vehicle: saline 104 % of control

CC(C)NC(=O)c1ccc(N/N=[N+](/C)[O-])cc1
inactive: endpoint: mean survival time, dose: 6.25 mg/kg/injection, schedule: Q01DX005 (ip), vehicle: saline with Tween-80 98 % of control | endpoint: mean survival time, dose: 12.5 mg/kg/injection, schedule: Q01DX005 (ip), vehicle: saline with Tween-80 100 % of control | endpoint: mean survival time, dose: 25.0 mg/kg/injection, schedule: Q01DX005 (ip), vehicle: saline with Tween-80 107 % of control | endpoint: mean survival time, dose: 50.0 mg/kg/injection, schedule: Q01DX005 (ip), vehicle: saline with Tween-80 100 % of control | endpoint: mean survival time, dose: 100.0 mg/kg/injection, schedule: Q01DX005 (ip), vehicle: saline with Tween-80 109 % of control | [4] 107 % of control | [5] 94 % of control | [6] 110 % of control | [7] 100 % of control | [8] 117 % of control | [9] 110 % of control

CCOCCN1CCN(CCCN2c3ccccc3Sc3ccc(C(F)(F)F)cc32)CC1
inactive: endpoint: mean survival time, dose: 1.75 mg/kg/injection, schedule: Q01DX001 (ip), vehicle: water 103 % of control | endpoint: mean survival time, dose: 3.5 mg/kg/injection, schedule: Q01DX001 (ip), vehicle: water 106 % of control | endpoint: mean survival time, dose: 7.0 mg/kg/injection, schedule: Q01DX001 (ip), vehicle: water 105 % of control | endpoint: mean survival time, dose: 9.9 mg/kg/injection, schedule: Q01DX001 (ip), vehicle: water 102 % of control | endpoint: mean survival time, dose: 15.0 mg/kg/injection, schedule: Q01DX001 (ip), vehicle: water 98 % of control | endpoint: mean survival time, dose: 22.0 mg/kg/injection, schedule: Q01DX001 (ip), vehicle: water 106 % of control | endpoint: mean survival time, dose: 37.5 mg/kg/injection, schedule: Q04DX003 (ip), vehicle: saline 122 % of control

O=C1C=C(c2ccccc2)C(c2ccccc2)C(c2ccccc2)C1 (centres undefined)
inactive: [4] 93 % of control | [6] 93 % of control | [8] 96 % of control

C1=C(c2ccccc2)CC(/C=C/c2ccccc2)(c2ccccc2)C1c1ccccc1 (centres undefined)
inactive: [10] 92 % of control | [11] 98 % of control | [4] 90 % of control

O=C(O)c1cccc2ccc(Br)cc12
inactive: endpoint: median survival time, dose: 50.0 mg/kg/injection, schedule: Q04DX002 (ip), vehicle: saline with Tween-80 100 % of control | endpoint: median survival time, dose: 100.0 mg/kg/injection, schedule: Q04DX002 (ip), vehicle: saline with Tween-80 100 % of control | endpoint: median survival time, dose: 200.0 mg/kg/injection, schedule: Q04DX002 (ip), vehicle: saline with Tween-80 111 % of control

C/C=C/C=C(\CC)C(=O)OCC
inactive: [1] 97 % of control | [2] 97 % of control | [3] 86 % of control

O=C(Nc1ccccc1SC(=O)c1ccccc1)c1ccccc1
inactive: [11] 91 % of control | [4] 87 % of control | [6] 91 % of control

Cc1ccc(/C=N/NC(=O)CNC(=O)Nc2cccc([N+](=O)[O-])c2)cc1
inactive: [11] 92 % of control | [4] 88 % of control

CCCOC(=O)c1ccc(NC(=O)Nc2ccc(C(=O)OCC)cc2)cc1
inactive: endpoint: mean survival time, dose: 25.0 mg/kg/injection, schedule: Q01DX001 (ip), vehicle: saline with Tween-80 96 % of control | [10] 88 % of control | endpoint: mean survival time, dose: 25.0 mg/kg/injection, schedule: Q04DX002 (ip), vehicle: saline with Tween-80 92 % of control and 95 % of control | endpoint: mean survival time, dose: 25.0 mg/kg/injection, schedule: Q04DX003 (ip), vehicle: saline with Tween-80 102 % of control | endpoint: mean survival time, dose: 50.0 mg/kg/injection, schedule: Q01DX001 (ip), vehicle: saline with Tween-80 93 % of control | [11] 88 % of control and 94 % of control | endpoint: mean survival time, dose: 50.0 mg/kg/injection, schedule: Q04DX002 (ip), vehicle: saline with Tween-80 92 % of control and 98 % of control | endpoint: mean survival time, dose: 50.0 mg/kg/injection, schedule: Q04DX003 (ip), vehicle: saline with Tween-80 92 % of control | [1] 87 % of control and 93 % of control | [4] 91 % of control and 96 % of control | [5] 91 % of control and 94 % of control | [2] 86 % of control | endpoint: mean survival time, dose: 200.0 mg/kg/injection, schedule: Q04DX002 (ip), vehicle: saline with Tween-80 90 % of control | [7] 86 % of control | endpoint: mean survival time, dose: 400.0 mg/kg/injection, schedule: Q04DX002 (ip), vehicle: saline with Tween-80 90 % of control | [9] 88 % of control

Cc1cc(C)c(C(=O)C2Oc3ccccc3C2c2ccccc2)c(C)c1 (centres undefined)
inactive: [4] 95 % of control | [5] 100 % of control | [6] 97 % of control | [7] 102 % of control | [8] 91 % of control | [9] 100 % of control

COC(=O)/C=C/N(Cc1ccccc1)Cc1ccccc1
inactive: [5] 98 % of control | [7] 96 % of control | [9] 94 % of control

CCCCCCCCCCCCCCCCSC(=S)OCC
inactive: [1] 95 % of control | [4] 96 % of control | [2] 87 % of control | [6] 95 % of control | [3] 95 % of control | [8] 95 % of control

O=C(O)Cc1ccc(Cl)c(Cl)c1
inactive: endpoint: mean survival time, dose: 50.0 mg/kg/injection, schedule: Q04DX003 (ip), vehicle: other 97 % of control | endpoint: mean survival time, dose: 100.0 mg/kg/injection, schedule: Q04DX003 (ip), vehicle: other 100 % of control | endpoint: mean survival time, dose: 200.0 mg/kg/injection, schedule: Q04DX003 (ip), vehicle: other 96 % of control

O=C(Nc1ccc(Cl)cc1Cl)SCCO
inactive: [4] 108 % of control | [6] 101 % of control | [8] 95 % of control

CC12CCC(=O)C=C1CCCC2O (centres undefined)
inactive: endpoint: mean survival time, dose: 100.0 mg/kg/injection, schedule: Q04DX003 (ip), vehicle: saline sonified 97 % of control | endpoint: mean survival time, dose: 200.0 mg/kg/injection, schedule: Q04DX003 (ip), vehicle: saline sonified 112 % of control

CN(C)c1ccc(N=Nc2nccs2)cc1
inactive: endpoint: mean survival time, dose: 18.7 mg/kg/injection, schedule: Q04DX003 (ip), vehicle: saline with Tween-80 86 % of control | endpoint: mean survival time, dose: 37.5 mg/kg/injection, schedule: Q04DX003 (ip), vehicle: saline with Tween-80 102 % of control | endpoint: mean survival time, dose: 75.0 mg/kg/injection, schedule: Q04DX003 (ip), vehicle: saline with Tween-80 96 % of control

N#Cc1cccc(N)c1
inactive: [4] 106 % of control | [6] 94 % of control | [8] 98 % of control

CCCCCCC[CH2][Sn]1([CH2]CCCCCCC)[O]C2C(CO)OC(n3cnc4c(=O)[nH]c(N)nc43)C2[O]1 (centres undefined)
inactive: endpoint: mean survival time, dose: 1.56 mg/kg/injection, schedule: Q01DX005 (ip), vehicle: other 96 % of control | endpoint: mean survival time, dose: 3.13 mg/kg/injection, schedule: Q01DX005 (ip), vehicle: other 98 % of control | endpoint: mean survival time, dose: 6.25 mg/kg/injection, schedule: Q01DX005 (ip), vehicle: other 102 % of control | endpoint: mean survival time, dose: 12.5 mg/kg/injection, schedule: Q01DX005 (ip), vehicle: other 104 % of control and 106 % of control

CN1COc2c(Cl)cc(Cl)cc2C1
inactive: endpoint: mean survival time, dose: 25.0 mg/kg/injection, schedule: Q01DX009 (ip), vehicle: saline 104 % of control | endpoint: mean survival time, dose: 50.0 mg/kg/injection, schedule: Q01DX009 (ip), vehicle: saline 104 % of control | endpoint: mean survival time, dose: 100.0 mg/kg/injection, schedule: Q01DX009 (ip), vehicle: saline 115 % of control | [5] 98 % of control
